As usually defined, the Kd is the concentration at which binding is half-saturated.

One assay concerns hCD38. Kind of assay: Phage display biopanning, PHASTpep selectivity score. Format: binding, human. Conditions: fold change of peptide frequency hCD38 versus average of hCD4, hCD8, GST-His; two rounds of biopanning, NGS. The text has this: Using phage display and purified human CD38 protein (hCD38), the first generation high- and low-selectivity CD38-targeted peptides were identified for the development of CD38-targeted imaging agents. Briefly, two rounds of phage display screening using the PHASTpep platform identified selective peptides for human CD38. CD38 (R&D, Catalog 2404-AC-010, Minneapolis, MN, U.S.A.) or negative control proteins, human CD4 (hCD4), human CD8 (hCD8), and GST-6His were adsorbed on Maxisorp plates (Nalgene, Nunc #442,404) according to NEB phage display protocols (NEB, Ipswich, MA). A 10 μL aliquot of PhD7 library (7 amino acid linear library) (2 × 10^11 phage) (NEB, #E8211S) diluted in blocking buffer (DPBS/1% bovine serum albumin (BSA)) was added to each well. After 1 h of incubation at room temperature, wells were washed five times with blocking buffer and the remaining bound phage eluted into 100 μL of glycine buffer (0.2 M glycine, 0.5 M NaCl, pH 2.2) for 9 min before immediately neutralizing with 17 μL of 1 M Tris–HCl (pH 9.2).
For analysis, sequencing of the selected phage clones was performed as described in Brinton et al.. Samples sent to the UVA Biomolecular Research Core Facility were deep sequenced on an Illumina MiSeq Sequencer. FASTQ files were analyzed using PHASTpep. PHASTpep analyzed files were aligned for amino acid sequence homology using the Smith—Waterman algorithm.
To identify peptides selective for CD38, we biopanned a random, 7 amino acid peptide phage library on recombinant hCD38 as well as hCD4, hCD8, and GST-His. After two rounds of biopanning on each protein, phage were harvested, amplified, and processed for next generation sequencing (NGS). FASTQ files were uploaded into PHASTpep, translated into peptides, and tables of frequency produced. All sequences were normalized to the naïve library (preselection) sequence frequencies and finally the fold change for each peptide frequency between hCD38 and the average of the same peptide frequency from the hCD4, hCD8, and GST-His screens was calculated. The Smith-Waterman homology algorithm was employed to identify clusters of similar peptides (Table S1). From the analysis, two clusters emerged with more than 5 peptides in the homology family and also had high selectivity (PHASTpep Score, Table S1).

Assay [1] concerns the target T1, Recombinant human CD38 protein (Homo sapiens, UniProt P28907). Kind of assay: Microscale thermophoresis (MST) binding affinity. More on the design: purchased R&D 2404-AC-010. To be noted: for Response Amplitude: Table S2. The protocol: Microscale thermophoresis (MST) assays determined the binding affinity of synthesized peptides to purified CD38 protein and was performed using the Monolith NT.115 (Nanotemper Technologies, Munich, Germany). […] Recombinant human CD38 protein (R&D, Catalog 2404-AC-010, Minneapolis, MN) was labeled with NT647 (Protein labeling kit red-maleimide, Nanotemper Technologies, Germany) and subsequently diluted to 5 nM in MST-2 buffer (50 mM Tris–HCl, pH 7.4, 150 mM NaCl, 10 mM MgCl2, 2% DMSO, and 0.1% Tween-20). Fluorescence was assessed in MST-2 buffer. Samples were loaded into NT.115 standard capillaries, and analysis was performed at 37 °C, 10% LED power, and 40% MST power. The Kd values were calculated from fragment concentration-dependent changes in normalized fluorescence (Fraction Bound) of different CD38 peptides based on the law of mass action using the MO Affinity Analysis v2.3 software.
Microscale Thermophoresis (MST) measures molecular interactions based on temperature gradient-dependent mobility of fluorescent biomolecules.
Fig. 1 Binding studies evaluating CD38-peptides using purified CD38 protein. Microscale thermophoresis (MST) analysis of binding affinities between purified CD38 protein and various CD38 peptide sequences.
Background: Microscale thermophoresis detects binding through changes in fluorescence in a small temperature gradient.

In assay [2] the target is T2, CD38 on MM.1S-CBR-GFP-WT cells (Homo sapiens, UniProt P28907).
T2 construct: endogenous in cells; host or cells: MM.1S-CBR-GFP-WT human myeloma cells
Kind of assay: In vitro blocking study of ^64Cu-NODAGA-PEG4-SL022-GGS cell binding. It counts as cell-based. To be noted: for blocking of ^64Cu-NODAGA-PEG4-SL022-GGS binding: 75 μM blocker, MM.1S-CBR-GFP-WT cells. The method, then:
To evaluate the specificity of the CD38 binding peptide, MM.1S-CBR-GFP-WT cells were suspended in binding buffer (Hank’s Balanced Salt Solution with 1 mM Ca^2+ and 1 mM Mg^2+ (HBSS + / +, Gibco, ThermoFisher, Waltham, MA) supplemented with 0.1% BSA) at 4 × 10^5 cells per 250 μL, representing the reaction volume.
In order to determine whether the conjugates were able to identify CD38 protein expressed in its native context, we performed cell binding assays with MM.1S-CBR-GFP-WT cells.

In assay [3] the target is T1, Recombinant human CD38 protein. Briefly: MST; Monolith NT.115; NT647-labeled recombinant human CD38 at 5 nM in MST-2 buffer (50 mM Tris-HCl pH 7.4, 150 mM NaCl, 10 mM MgCl2, 2% DMSO, 0.1% Tween-20); peptides titrated (0.0305 nM to 1000 nM or 0.0305 uM to 1000 uM); 37 °C, 10% LED power, 40% MST power.

QGTDWTM: the “Score (PHASTpep Score)” value with hCD38 came to 1.7.

Consider DLVHYPE, for which the “Score (PHASTpep Score)” value with hCD38 is given as 1.5.

YKDWSEW: the “Score (PHASTpep Score)” value in the assay on hCD38 came to 266.4.

On to “AC-Thr-His-Tyr-Pro-Ile-Val-Ile-Gly-Gly-Ser Lys-NH2 [AC-SL022-GGS]”, for which the “Response Amplitude” value in assay [1] worked out at 4.91.

Regarding VNYHFPV, the “Score (PHASTpep Score)” value with hCD38 stood at 1.2. Also, the “binding to purified CD38” value in assay [1] is “negligible binding”.

For the molecule “daratumumab: CD38-targeted FDA approved antibody [reference compound]”, the “blocking of ^64Cu-NODAGA-PEG4-SL022-GGS binding” value in assay [2] (300 nM tracer, 4 °C, 60 min) is given as 73%. For the same molecule, in assay [2] (300 nM tracer, 75 μM unlabeled blocker (250-fold molar excess), 4 °C, 60 min, mean ± SD), the “cell-bound ^64Cu-NODAGA-PEG4-SL022-GGS in presence of blocker” value was 3000 ± 600 fmol/mg.

Consider “AC-Phe-Ser-Arg-Asp-Trp-Thr-Ser-Gly-Gly-Ser-Lys-NH2 [AC-SL028-GGS]”, for which the “Response Amplitude” value in assay [1] was found to be 4.64.

TPYPIVL: in the assay on hCD38, the “Score (PHASTpep Score)” value is reported as 429.7.

For the molecule VSYHFPV, in the assay with hCD38, the “Score (PHASTpep Score)” value is given as 194.4.

Take FSRDWTS: the “Score (PHASTpep Score)” value in the assay with hCD38 was 671.1.

On to Thr-His-Tyr-Pro-Ile-Val-Ile [THYPIVI], for which, in the assay with hCD38, the “Score (PHASTpep Score)” value was 730.1.

Regarding “NODAGA-PEG4-Thr-His-Tyr-Pro-Ile-Val-Ile-Gly-Gly-Ser-Lys-NH2 [NODAGA-PEG4-SL022-GGS]”, the “blocking of ^64Cu-NODAGA-PEG4-SL022-GGS binding” value in assay [2] (300 nM tracer, 4 °C, 60 min) is listed as 58%. Besides, the “decrease in cell-bound ^64Cu-NODAGA-PEG4-SL022-GGS” value in assay [2] (250-fold molar excess of unlabeled blocker) is given as “about 2 fold”.

For the molecule YDWTMHS, in the assay on hCD38, the “Score (PHASTpep Score)” value was 299.7.

For QTSHDWL, the “Score (PHASTpep Score)” value with hCD38 was 1.7.

Regarding MPVARDW, the “Score (PHASTpep Score)” value in the assay on hCD38 is on record as 2.1.

In the case of FSRDWTSGGSK (AC (acetyl) on the N-terminus; C-terminal amide) [AC-SL028-GGS (AC-Phe-Ser-Arg-Asp-Trp-Thr-Ser-Gly-Gly-Ser-Lys-NH2)], the Kd in assay [3] amounted to 243 nM.

In the case of H-KGGSFSRDWTS-NH2 [GGS-SL028 (H-Lys-Gly-Gly-Ser-Phe-Ser-Arg-Asp-Trp-Thr-Ser-NH2)], in assay [3], the Kd is 82.6 nM.

The values above are taken from paper PMC11282151, “Development of New CD38 Targeted Peptides for Cancer Imaging” (Molecular imaging and biology, 2024).
